Test results from article PMC10590383, “Repurposing conformational changes in ANL superfamily enzymes to rapidly generate biosensors for organic and amino acids” (Nature Communications, 2023).

Assay: pH stability of […]-Phe3 (dose–response and fluorescence intensity at pH 6.5, 7.5, 8.5)
Format: biochemical
Details: for fluorescence response of GECFINDER, AVE of 3 repeats: Supplementary Fig. 3 e; for fluorescence intensity, AVE of 3 repeats: Supplementary Fig. 3 d, 100 μM Phe
Description: As cpEGFP is sensitive to pH, we conducted a dose-response curve and fluorescence intensity analysis of […]-Phe3 at varying pH levels. […] In addition, we expanded the range of ligand-binding domains (LBDs) applicable to […] and attempted optimization of insertion sites for cpEGFP with limited success. Please refer to Supplemental Note 1 for detailed information.
The study conducted dose–response curve, substrate specificity, and fluorescent spectrum analyses in 100-mM Tris buffer (pH = 7.5), while pH stability experiments were performed in 100-mM Tris buffer at three different pH values (6.5, 7.5, and 8.5) at room temperature. […] protein at a concentration of 0.75 μM, various small molecule concentrations, 1 mM ATP, and 2.5 mM MgCl2 were used in the experiments. Fluorescent signals were detected using a Microplate Reader (Synergy H4, Bio Tek) at an excitation/emission wavelength of 460 nm/510 nm or 480 nm/510 nm. The dose-response curve was determined immediately after the addition of the analyte. The total duration of the measurement was 15 min, with readings taken at one-minute intervals. The dose-response curve was plotted using the fluorescence values obtained after achieving stability in the fluorescence signal. The dose-response curves were fitted using the logistic model LOGISTIC5 available in Origin 2021, which could provide a more adequate fit to asymmetric dose-response data[62],[63]. Excitation spectra were scanned from 300 to 540 nm with a step size of 5 nm, and the emission wavelength was set to 560 nm. Emission spectra were scanned from 470 to 700 nm with a step size of 5 nm, and the excitation wavelength was set to 450 nm. The thermal stability of […] was analyzed using the UNcle multifunctional protein stability analysis system. Measurements were performed in 20 mM MOPS buffer with 2 mM DTT at a sample concentration of 1 mg/mL. Absolute fluorescence quantum yields were measured using an absolute photoluminescence quantum yield spectrometer (FS5, Edinburgh). […]
β-P he. […]
All data shown are mean s ± S.D . (n =3 biologically inde pendent samples). Source
data are provided as a Source Data file.
(also on this page, place not known: 10210-210-3 Normalized Normalized […]-Leu3 10-4 10⁵ 2.5 Normalized ΔF/F 0 AlaAr As p As […]Pr SerThr ValTrpTyr Ph R-β-Ph β-Ph e 2.5Normalized ΔF/F 0 Substrate 100μM 100μM 100μM Fluorescence ...K ...N GrsA-PheA PpsA-GluA -QSVF- 10⁰ 10⁵ […]-Ile(VF-QS) Normalized ΔF/F 0 (μM) 0mM 0.75mM His 12×10³Intensity f g Substrate specificity engineering insertion optimization […]. Dose–response purified […]-Leu2 increasing concentrations normalized ΔF/F0 […]-SβF acids R/S- β-Phe. concentrations substrates Fluorescence purified […]-Phe3 different control fluorescence substrate added. response purified […]-Phe3 increasing concentrations different junction domain Dose–response curve purified […]-Ile (VF-QS) increasing concentrations Normalized ΔF/F0 increased after excitation).h, Difference fluorescence intensity […]-His (VF-QS) presence histidine compared control means S.D. (n=3 independent) […]

## N[C@@H](Cc1ccccc1)C(=O)O [Phe]
pH6.5, Phe 0.001 μM
  fluorescence response of GECFINDER, AVE of 3 repeats: -5.5222e-17
pH6.5, Phe 0.005 μM
  fluorescence response of GECFINDER, AVE of 3 repeats: 0.01941
pH6.5, Phe 0.01 μM
  fluorescence response of GECFINDER, AVE of 3 repeats: 0.04517
pH6.5, Phe 0.05 μM
  fluorescence response of GECFINDER, AVE of 3 repeats: 0.1259
pH6.5, Phe 0.1 μM
  fluorescence response of GECFINDER, AVE of 3 repeats: 0.2201
pH6.5, Phe 0.5 μM
  fluorescence response of GECFINDER, AVE of 3 repeats: 0.7727
pH6.5, Phe 1 μM
  fluorescence response of GECFINDER, AVE of 3 repeats: 1.198
pH6.5, Phe 5 μM
  fluorescence response of GECFINDER, AVE of 3 repeats: 2.235
pH6.5, Phe 10 μM
  fluorescence response of GECFINDER, AVE of 3 repeats: 2.5727
pH6.5, Phe 25 μM
  fluorescence response of GECFINDER, AVE of 3 repeats: 2.94
pH6.5, Phe 50 μM
  fluorescence response of GECFINDER, AVE of 3 repeats: 3.093
pH6.5, Phe 100 μM
  fluorescence response of GECFINDER, AVE of 3 repeats: 3.166
pH7.5, Phe 0.001 μM
  fluorescence response of GECFINDER, AVE of 3 repeats: 0
pH7.5, Phe 0.005 μM
  fluorescence response of GECFINDER, AVE of 3 repeats: 0.04668
pH7.5, Phe 0.01 μM
  fluorescence response of GECFINDER, AVE of 3 repeats: 0.05356
pH7.5, Phe 0.05 μM
  fluorescence response of GECFINDER, AVE of 3 repeats: 0.1413
pH7.5, Phe 0.1 μM
  fluorescence response of GECFINDER, AVE of 3 repeats: 0.2634
pH7.5, Phe 0.5 μM
  fluorescence response of GECFINDER, AVE of 3 repeats: 0.9215
pH7.5, Phe 1 μM
  fluorescence response of GECFINDER, AVE of 3 repeats: 1.384
pH7.5, Phe 5 μM
  fluorescence response of GECFINDER, AVE of 3 repeats: 2.412
pH7.5, Phe 10 μM
  fluorescence response of GECFINDER, AVE of 3 repeats: 2.788
pH7.5, Phe 25 μM
  fluorescence response of GECFINDER, AVE of 3 repeats: 3.108
pH7.5, Phe 50 μM
  fluorescence response of GECFINDER, AVE of 3 repeats: 3.25
pH7.5, Phe 100 μM
  fluorescence response of GECFINDER, AVE of 3 repeats: 3.385
pH8.5, Phe 0.001 μM
  fluorescence response of GECFINDER, AVE of 3 repeats: 5.725e-17
pH8.5, Phe 0.005 μM
  fluorescence response of GECFINDER, AVE of 3 repeats: 0.003084
pH8.5, Phe 0.01 μM
  fluorescence response of GECFINDER, AVE of 3 repeats: 0.009629
pH8.5, Phe 0.05 μM
  fluorescence response of GECFINDER, AVE of 3 repeats: 0.04022
pH8.5, Phe 0.1 μM
  fluorescence response of GECFINDER, AVE of 3 repeats: 0.0788
pH8.5, Phe 0.5 μM
  fluorescence response of GECFINDER, AVE of 3 repeats: 0.5458
pH8.5, Phe 1 μM
  fluorescence response of GECFINDER, AVE of 3 repeats: 0.9288
pH8.5, Phe 5 μM
  fluorescence response of GECFINDER, AVE of 3 repeats: 1.837
pH8.5, Phe 10 μM
  fluorescence response of GECFINDER, AVE of 3 repeats: 2.121
pH8.5, Phe 25 μM
  fluorescence response of GECFINDER, AVE of 3 repeats: 2.449
pH8.5, Phe 50 μM
  fluorescence response of GECFINDER, AVE of 3 repeats: 2.595
pH8.5, Phe 100 μM
  fluorescence response of GECFINDER, AVE of 3 repeats: 2.661
pH6.5
  fluorescence intensity, AVE of 3 repeats: 11375
pH7.5
  fluorescence intensity, AVE of 3 repeats: 18474.7
pH8.5
  fluorescence intensity, AVE of 3 repeats: 19389
